Active and inactive are the calls of the source. The rule behind the calls is not given here.

The species entered for one assay is Homo sapiens. The experiment in a line: Psychotomimetic potency expressed as the effective dose of mescaline divided by the effective dose in human. The assay is classed as functional.
Compound `COc1ccc(OC)c(CC(C)N)c1.Cl` (stereo unspecified) came in with a Potency of 8 MU. As to `COc1cc(OC)c(OC)cc1CC(C)N.Cl` (stereo unspecified), the Potency was 17 MU. In turn, `COc1cc(CC(C)N)c(OC)cc1C.Cl` (stereo unspecified) showed a Potency of 80 MU. The same measure, in the same setting: then `COc1cc(OC)c(CC(C)N)c(OC)c1.Cl` (stereo unspecified), with 10 MU; and `COc1cc(CCN)cc(OC)c1OC.Cl`, with 1 MU. In turn, `COc1ccc(CC(C)N)cc1.Cl` (stereo unspecified) returned a Potency of 5 MU.

On to `COc1c(CCN)ccc2c1OCO2.Cl`, for which the Potency turned out to be 5 MU. `COc1cc(CC(C)N)cc(OC)c1OC.Cl` (stereo unspecified): the Potency turned out to be 2.2 MU. Turning to `COc1c(CC(C)N)ccc2c1OCO2.Cl` (stereo unspecified), the Potency came out at 10 MU.

For another assay, the species on record is Homo sapiens. As to the kind of experiment: Psychotomimetic potency expressed as the effective dose of mescaline divided by the effective dose in human; Inactive. The assay is classed as functional, organism-based.
For the compound `COc1ccc(CC(C)N)c(OC)c1OC` (stereo unspecified), the Potency result is “inactive”. With `COc1ccc(CCN)c(OC)c1OC`, the Potency entry is “inactive”.

Values taken from ChEMBL document CHEMBL1121894, “Studies on phenethylamine hallucinogens. 2. Conformations of arylmethoxyl groups using 13C NMR” (1981).
